According to ChEMBL document CHEMBL1146999, “Bradykinin antagonists modified with dipeptide mimetic beta-turn inducers” (Bioorg Med Chem Lett, 2006):

Experiments:
B2 bradykinin receptor [1] = molecular target: T1, B2 bradykinin receptor (Homo sapiens, UniProt P30411); assay: Antagonist activity against bradykinin B2 receptor; type: functional; conditions: read-out: pA2 (converted)
T1 sequence (P30411 whole entry): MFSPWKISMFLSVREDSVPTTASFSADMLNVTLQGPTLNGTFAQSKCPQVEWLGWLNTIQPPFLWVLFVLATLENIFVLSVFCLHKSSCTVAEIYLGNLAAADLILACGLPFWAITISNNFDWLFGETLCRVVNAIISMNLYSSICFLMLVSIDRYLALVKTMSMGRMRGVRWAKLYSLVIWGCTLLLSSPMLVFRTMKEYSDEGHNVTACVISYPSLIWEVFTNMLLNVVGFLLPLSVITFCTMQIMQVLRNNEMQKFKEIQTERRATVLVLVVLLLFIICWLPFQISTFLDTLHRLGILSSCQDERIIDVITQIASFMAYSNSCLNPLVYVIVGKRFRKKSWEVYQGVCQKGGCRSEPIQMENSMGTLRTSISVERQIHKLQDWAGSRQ

B2 bradykinin receptor [2] = molecular target: T1, B2 bradykinin receptor; assay: Binding affinity to human bradykinin B2 receptor transfected in CHO cells; type: cell-based

Kb (B2 bradykinin receptor [1]) [nM] | Ki (B2 bradykinin receptor [2]) [nM] | SMILES
> 10000 | 3160 | NC(N)=NCCC[C@@H](N)C(=O)N[C@@H](CCCN=C(N)N)C(=O)N1CCC[C@H]1C(=O)N1CC(O)C[C@H]1C(=O)NCC(=O)N[C@@H](Cc1cccs1)C(=O)N[C@@H](CO)C(=O)N[C@]1(Cc2ccccc2)CCCC2N(C1=O)[C@H](C(=O)N[C@@H](CCCN=C(N)N)C(=O)O)CC21CCCC1 (some centres undefined)
2510 | 100 | NC(N)=NCCC[C@@H](N)C(=O)N[C@@H](CCCN=C(N)N)C(=O)N1CCC[C@H]1C(=O)N1CC(O)C[C@H]1C(=O)NCC(=O)N[C@@H](Cc1cccs1)C(=O)N[C@@H](CO)C(=O)N[C@@]1(Cc2ccccc2)CCCC2N(C1=O)[C@H](C(=O)N[C@@H](CCCN=C(N)N)C(=O)O)CC21CCCC1 (some centres undefined)
